Converted amounts (≈) assume the structure as drawn.
Legend:
Type in all cases: functional
[1] = tested on: Mycobacterium tuberculosis; assay: Ratio of MBC99.9 to MIC for streptomycin, ethambutol, kanamycin, isoniazid, rifabutin, rifampicin, levofloxacin, and ciprofloxacin-resistant Mycobacterium tuberculosis LV19
[2] = tested on: Mycobacterium tuberculosis; assay: Antimycobacterial activity against isoniazid, rifampicin, and rifabutin-resistant Mycobacterium tuberculosis LV2 by microbroth dilution method
[3] = tested on: Mycobacterium tuberculosis; assay: Antimycobacterial activity against streptomycin, ethambutol, kanamycin, isoniazid, rifabutin, rifampicin, levofloxacin, and ciprofloxacin-resistant Mycobacterium tuberculosis LV19 by microbroth dilution method
[4] = tested on: Mycobacterium tuberculosis; assay: Ratio of MBC99.9 to MIC for isoniazid, rifampicin, and rifabutin-resistant Mycobacterium tuberculosis LV2

## C=C1C[C@@]23C=CC(=O)[C@@](C)(CCC(=O)Nc4c(O)ccc(C(=O)O)c4O)[C@@H]2C[C@@H]1CC3 (racemic) [PLATENCIN]
[1]
  Ratio: >64
[2]
  MIC: 1 µg/mL (≈ 2.35 µM)
[3]
  MIC: 1 µg/mL (≈ 2.35 µM)
[4]
  Ratio: >64
